These are literature values, as cited in patent EP4197526A1, “HYDROGEL FORMULATION COMPRISING ZEBULARINE AND RETIONIC ACID” (Uniwersytet Gdanski, priority 2021, dated 2023).

Values joined by “and” are separate entries in the source; they are usually repeats but may differ in a detail not shown here. Equal entries are not always repeated.

The conditions of the data set: literature data.

As for `CC1=C(/C=C/C(C)=C/C=C/C(C)=C/C(=O)O)C(C)(C)CCC1` [retinoic acid], the solubility in water is 0.000063 mg/ml and 0.21 microM.
Consider `O=c1ncccn1[C@@H]1O[C@H](CO)[C@@H](O)[C@H]1O` [zebularine], for which the solubility in water entry is on record as “up to 50 mg/ml”.
